T/C data for nine compounds are collected here from PubChem BioAssay AID250 (DTP/NCI, 2004).

The assay concerns BDF1 mice, L1210 leukemia sc, survival T/C. Nature of the assay: NCI In Vivo Anticancer Drug Screen. Data for tumor model L1210 Leukemia (subcutaneous) in B6D2F1 (BDF1) mice. The note with it: endpoint: median survival time, higher = longer survival. In outline: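 Antitumor activity is assessed in mice with transplanted tumors by comparing the treated group (T) with the vehicle control group (C).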

The mark [1] stands for this setting: dose: 1.0 mg/kg/injection, schedule: Q01DX009 (sc), vehicle: saline.
The mark [2] stands for this setting: dose: 2.0 mg/kg/injection, schedule: Q01DX009 (sc), vehicle: saline.
The mark [3] stands for this setting: dose: 8.0 mg/kg/injection, schedule: Q01DX009 (sc), vehicle: saline.
Where [4] appears, read: dose: 16.0 mg/kg/injection, schedule: Q01DX009 (sc), vehicle: saline.
The mark [5] stands for this setting: dose: 108.0 mg/kg/injection, schedule: Q01DX Z (sc), vehicle: methylcellulose (MC).
The mark [6] stands for this setting: dose: 300.0 mg/kg/injection, schedule: Q01DX Z (sc), vehicle: methylcellulose (MC).
The mark [7] stands for this setting: dose: 180.0 mg/kg/injection, schedule: Q01DX Z (sc), vehicle: methylcellulose (MC).
The mark [8] stands for this setting: dose: 500.0 mg/kg/injection, schedule: Q01DX Z (sc), vehicle: methylcellulose (MC).
Where [9] appears, read: dose: 833.0 mg/kg/injection, schedule: Q01DX Z (sc), vehicle: methylcellulose (MC).

Molecules are shown by their SMILES. Several values for one entry are separate records, joined by “and”; a condition that tells them apart may be missing. Equal entries are not always repeated. Inconclusive results and toxic doses are left out. Square brackets hold non-standard residues; d marks the D form. Peptide text beside a SMILES is read from it. Ac5c = NC1(C(=O)O)CCCC1

As to `N[C@H](C(=O)O)[C@@H]1CC(Cl)=NO1`, the T/C reads like this: under setting [1], 113 % of control; under setting [2], 150 % of control; (dose: 4.0 mg/kg/injection, schedule: Q01DX009 (sc), vehicle: saline) 159 % of control; under setting [3], 151 % of control and 172 % of control; under setting [4], 162 % of control; (dose: 32.0 mg/kg/injection, schedule: Q01DX009 (sc), vehicle: saline) 159 % of control. For the setting “dose: 64.0 mg/kg/injection, schedule: Q01DX009 (sc), vehicle: saline”, the T/C was 154 % of control.
`CC/C(=C(/CC)c1ccc(O)cc1)c1ccc(O)cc1`: the T/C by setting is: under setting [5], 100 % of control; under setting [6], 100 % of control.
Regarding `CC[n+]1c(-c2ccccc2)c2cc(N)ccc2c2ccc(N)cc21`, the T/C by setting is: (dose: 39.0 mg/kg/injection, schedule: Q01DX Z (sc), vehicle: carboxymethylcellulose (CMC)) 110 % of control; (dose: 65.0 mg/kg/injection, schedule: Q01DX Z (sc), vehicle: carboxymethylcellulose (CMC)) 115 % of control; (dose: 108.0 mg/kg/injection, schedule: Q01DX Z (sc), vehicle: carboxymethylcellulose (CMC)) 95 % of control.
For the compound `CCN(CC)CCCC(C)Nc1c2ccc(Cl)cc2nc2ccc(OC)cc12` (centres undefined), the T/C (dose: 23.0 mg/kg/injection, schedule: Q01DX Z (sc), vehicle: water) is 90 % of control; the T/C (dose: 39.0 mg/kg/injection, schedule: Q01DX Z (sc), vehicle: water) was 100 % of control; the T/C (dose: 65.0 mg/kg/injection, schedule: Q01DX Z (sc), vehicle: water) was 100 % of control; the T/C (dose: 108.0 mg/kg/injection, schedule: Q01DX Z (sc), vehicle: water) is 95 % of control; the T/C (dose: 180.0 mg/kg/injection, schedule: Q01DX Z (sc), vehicle: water) was 100 % of control; the T/C (dose: 300.0 mg/kg/injection, schedule: Q01DX Z (sc), vehicle: water) is 100 % of control.
`CCCCCCCSc1ncnc2nc[nH]c12`: the T/C runs as follows: under setting [5], 111 % of control; under setting [7], 111 % of control; under setting [6], 100 % of control; under setting [8], 100 % of control; under setting [9], 100 % of control; (dose: 1388.0 mg/kg/injection, schedule: Q01DX Z (sc), vehicle: methylcellulose (MC)) 100 % of control.
Regarding `CC(CNC(=O)CCOS(C)(=O)=O)NC(=O)CCOS(C)(=O)=O` (centres undefined), the T/C is 105 % of control under setting [5]; 175 % of control (dose: 180.0 mg/kg/injection, schedule: Q01DX Z (sc), vehicle: carboxymethylcellulose (CMC)); 115 % of control under setting [7]; 150 % of control (dose: 300.0 mg/kg/injection, schedule: Q01DX Z (sc), vehicle: carboxymethylcellulose (CMC)); 120 % of control under setting [6]; 120 % of control under setting [8]. The T/C is 110 % of control (dose: 833.0 mg/kg/injection, schedule: Q01DX Z (sc), vehicle: carboxymethylcellulose (CMC)) and 110 % of control under setting [9].
As for `Nc1ncn(C2OC(CO)C(O)C2O)c(=O)n1` (centres undefined), the T/C was 105 % of control (dose: 0.5 mg/kg/injection, schedule: Q01DX009 (sc), vehicle: saline); 104 % of control (dose: 0.5 mg/kg/injection, schedule: Q03HX024 (sc), vehicle: saline); 155 % of control (dose: 0.75 mg/kg/injection, schedule: Q01DX009 (ip), vehicle: saline); 155 % of control (dose: 0.75 mg/kg/injection, schedule: Q01DX009 (sc), vehicle: saline); 110 % of control and 111 % of control (2×) under setting [1]; 118 % of control (dose: 1.0 mg/kg/injection, schedule: Q03HX024 (sc), vehicle: saline). The T/C is 116 % of control and 119 % of control (dose: 1.0 mg/kg/injection, schedule: Q05DX009 (sc), vehicle: saline); 205 % of control (dose: 1.5 mg/kg/injection, schedule: Q01DX009 (ip), vehicle: saline); 200 % of control (dose: 1.5 mg/kg/injection, schedule: Q01DX009 (sc), vehicle: saline); 120 % of control and 121 % of control and 122 % of control under setting [2]; 100 % of control (dose: 2.0 mg/kg/injection, schedule: Q04DX003 (sc), vehicle: saline); 122 % of control and 123 % of control (dose: 2.0 mg/kg/injection, schedule: Q05DX009 (sc), vehicle: saline). Besides, the T/C by setting is: (dose: 3.0 mg/kg/injection, schedule: Q01DX009 (sc), vehicle: saline) 172 % of control; (dose: 3.0 mg/kg/injection, schedule: Q04DX003 (sc), vehicle: saline) 122 % of control; (dose: 4.0 mg/kg/injection, schedule: Q01DX001 (sc), vehicle: saline) 100 % of control; (dose: 4.0 mg/kg/injection, schedule: Q03HX024 (sc), vehicle: saline) 151 % of control; (dose: 4.0 mg/kg/injection, schedule: Q04DX003 (sc), vehicle: saline) 100 % of control; (dose: 6.0 mg/kg/injection, schedule: Q01DX009 (ip), vehicle: saline) 88 % of control. For the same compound, the T/C runs as follows: (dose: 6.0 mg/kg/injection, schedule: Q01DX009 (sc), vehicle: saline) 100 % of control; (dose: 6.0 mg/kg/injection, schedule: Q04DX003 (ip), vehicle: saline) 200 % of control; (dose: 6.0 mg/kg/injection, schedule: Q04DX003 (sc), vehicle: saline) 183 % of control; (dose: 8.0 mg/kg/injection, schedule: Q01DX001 (sc), vehicle: saline) 105 % of control; under setting [3], 105 % of control; (dose: 8.0 mg/kg/injection, schedule: Q03HX024 (sc), vehicle: saline) 110 % of control. The T/C (dose: 8.0 mg/kg/injection, schedule: Q04DX003 (sc), vehicle: saline) was 110 % of control; the T/C (dose: 12.0 mg/kg/injection, schedule: Q01DX001 (sc), vehicle: saline) is 155 % of control; the T/C (dose: 12.0 mg/kg/injection, schedule: Q04DX003 (ip), vehicle: saline) was 150 % of control; the T/C (dose: 12.0 mg/kg/injection, schedule: Q04DX003 (sc), vehicle: saline) was 150 % of control; the T/C (dose: 16.0 mg/kg/injection, schedule: Q01DX001 (sc), vehicle: saline) was 120 % of control; the T/C under setting [4] was 108 % of control and 111 % of control. Moreover, the T/C was 120 % of control (dose: 16.0 mg/kg/injection, schedule: Q04DX003 (sc), vehicle: saline); 111 % of control and 113 % of control (dose: 16.0 mg/kg/injection, schedule: Q05DX009 (sc), vehicle: saline); 155 % of control (dose: 24.0 mg/kg/injection, schedule: Q01DX001 (ip), vehicle: saline); 166 % of control (dose: 24.0 mg/kg/injection, schedule: Q01DX001 (sc), vehicle: saline); 105 % of control (dose: 24.0 mg/kg/injection, schedule: Q04DX003 (sc), vehicle: saline); 166 % of control (dose: 48.0 mg/kg/injection, schedule: Q01DX001 (ip), vehicle: saline). The T/C (dose: 48.0 mg/kg/injection, schedule: Q01DX001 (sc), vehicle: saline) is 166 % of control; the T/C (dose: 48.0 mg/kg/injection, schedule: Q04DX003 (ip), vehicle: saline) was 100 % of control; the T/C (dose: 48.0 mg/kg/injection, schedule: Q04DX003 (sc), vehicle: saline) was 122 % of control.
As for `NCC(=O)NC1(C(=O)O)CCCC1` (H-Gly-[Ac5c]-OH), the T/C by setting is: (dose: 55.0 mg/kg/injection, schedule: Q01DX Z (sc), vehicle: water) 105 % of control; (dose: 91.0 mg/kg/injection, schedule: Q01DX Z (sc), vehicle: water) 105 % of control; (dose: 152.0 mg/kg/injection, schedule: Q01DX Z (sc), vehicle: water) 105 % of control; (dose: 253.0 mg/kg/injection, schedule: Q01DX Z (sc), vehicle: water) 157 % of control.
For `Nc1cc(=O)[nH][nH]1`, the T/C is 100 % of control (dose: 300.0 mg/kg/injection, schedule: Q01DX Z (sc), vehicle: saline); 105 % of control (dose: 500.0 mg/kg/injection, schedule: Q01DX Z (sc), vehicle: saline); 90 % of control (dose: 833.0 mg/kg/injection, schedule: Q01DX Z (sc), vehicle: saline); 90 % of control (dose: 1388.0 mg/kg/injection, schedule: Q01DX Z (sc), vehicle: saline).
